{"source": "patent US20040204463A1", "about": "“N-aryl-2-oxazolidinone-5-carboxamides and their derivatives” (priority 2003, published 2004)", "key": {"SPNE 9912": {"system": "SPNE 9912", "experiment": "In vitro MIC by standard agar dilution method, SPNE 9912", "format": "cell-based", "settings": "read-out: SPNE 9912 MIC (Minimum Inhibitory Concentration)", "text": "(§1) The oxazolidinone antibacterial agents of this invention have useful activity against a variety of organisms. The in vitro activity of compounds of this invention can be assessed by standard testing procedures such as the determination of minimum inhibitory concentration (MIC) by agar dilution as described in “Approved Standard. Methods for Dilution Antimicrobial Susceptibility Tests for Bacteria That Grow Aerobically”, 3rd. ed., published 1993 by the National Committee for Clinical Laboratory Standards, Villanova, Pa., USA.\n(§2) The in vitro MICs of test compounds were determined by a standard agar dilution method. A stock drug solution of each analog was prepared in the preferred solvent, usually DMSO: H2O (1:3). Serial 2-fold dilutions of each sample are made using 1.0 ml aliquots of sterile distilled water. To each 1.0 ml aliquot of drug was added 9 ml of molten Mueller Hinton agar medium. The drug-supplemented agar was mixed, poured into 15×100 mm petri dishes, and allowed to solidify and dry prior to inoculation.\n(§3) Vials of each of the test organisms are maintained frozen in the vapor phase of a liquid nitrogen freezer. Test cultures are grown overnight at 35° C. on the medium appropriate for the organism. Colonies are harvested with a sterile swab, and cell suspensions are prepared in Trypticase Soy broth (TSB) to equal the turbidity of a 0.5 McFarland standard. A 1:20 dilution of each suspension was made in TSB. The plates containing the drug supplemented agar are inoculated with a 0.001 ml drop of the cell suspension using a Steers replicator, yielding approximately 10^4 to 10^5 cells per spot. The plates are incubated overnight at 35° C.\n(§4) Following incubation the Minimum Inhibitory Concentration (MIC μg/ml), the lowest concentration of drug that inhibits visible growth of the organism, was read and recorded."}, "HINF 30063": {"system": "HINF 30063", "experiment": "In vitro MIC by standard agar dilution method, HINF 30063", "format": "cell-based, H. influenzae", "settings": "Haemophilus influenzae, read-out: HINF 30063 MIC (Minimum Inhibitory Concentration)", "text": "as §1, §2, §3, §4"}, "SAUR 9213": {"system": "SAUR 9213", "experiment": "In vitro MIC by standard agar dilution method, SAUR 9213", "format": "cell-based, S. aureus", "settings": "Staphylococcus aureus, read-out: SAUR 9213 MIC (Minimum Inhibitory Concentration)", "text": "as §1, §2, §3, §4"}, "[1]": {"settings": "agar dilution, Mueller Hinton agar, incubated overnight at 35° C., lowest concentration that inhibits visible growth"}}, "note": "Where two headings read alike, the source gives them in different places."}
{"smiles": "CC(=O)NC[C@H]1CN(c2cc(F)c(N3CCN(C(=O)CCCC#Cc4cccc(CN)c4)CC3)c(F)c2F)C(=O)O1", "note": "[Compound 11, N-({(5S)-3-[4-(4-{6-[3-(aminomethyl)phenyl]hex-5-ynoyl}piperazin-1-yl)-2,3,5-trifluorophenyl]-2-oxo-1,3-oxazolidin-5-yl}methyl)acetamide]", "values": [{"measurement": "MIC", "setting": "SPNE 9912; [1]", "value": 2, "unit": "µg/mL"}, {"measurement": "MIC", "setting": "HINF 30063; [1]", "value": 16, "unit": "µg/mL"}, {"measurement": "MIC", "setting": "SAUR 9213; [1]", "value": 4, "unit": "µg/mL"}]}
{"smiles": "CC(=O)NC[C@H]1CN(c2ccc(N3CCN(C(=O)CCCCC#Cc4cccc(CN)c4)CC3)c(F)c2)C(=O)O1", "note": "[Compound 32, N-({(5S)-3-[4-(4-{7-[3-(aminomethyl)phenyl]hept-6-ynoyl}-piperazin-1-yl)-3-fluorophenyl]-2-oxo-1,3-oxazolidin-5-yl}methyl)acetamide]", "values": [{"measurement": "MIC", "setting": "SPNE 9912; [1]", "value": 2, "unit": "µg/mL"}, {"measurement": "MIC", "setting": "HINF 30063; [1]", "value": 64, "unit": "µg/mL"}, {"measurement": "MIC", "setting": "SAUR 9213; [1]", "value": 4, "unit": "µg/mL"}]}
{"smiles": "CC(=O)NC[C@H]1CN(c2ccc(N3CCN(C(=O)CCCCC#Cc4ccc(CN)cc4)CC3)c(F)c2)C(=O)O1", "note": "[Compound 23, N-({(5S)-3-[4-(4-{7-[4-(aminomethyl)phenyl]hept-6-ynoyl}piperazin-1-yl)-3-fluorophenyl]-2-oxo-1,3-oxazolidin-5-yl}methyl)acetamide]", "values": [{"measurement": "MIC", "setting": "SPNE 9912; [1]", "value": 0.25, "unit": "µg/mL"}, {"measurement": "MIC", "setting": "HINF 30063; [1]", "value": 32, "unit": "µg/mL"}, {"measurement": "MIC", "setting": "SAUR 9213; [1]", "value": 4, "unit": "µg/mL"}]}
{"smiles": "CNCc1ccc(C#CCCCC(=O)N2CCN(c3ccc(N4C[C@H](CNC(C)=O)OC4=O)cc3F)CC2)cc1", "note": "[Compound 19, N-[((5S)-3-{3-fluoro-4-[4-(6-{4-[(methylamino)methyl]phenyl}hex-5-ynoyl)piperazin-1-yl]phenyl}-2-oxo-1,3-oxazolidin-5-yl)methyl]acetamide]", "values": [{"measurement": "MIC", "setting": "SPNE 9912; [1]", "value": 0.25, "unit": "µg/mL"}, {"measurement": "MIC", "setting": "HINF 30063; [1]", "value": 32, "unit": "µg/mL"}, {"measurement": "MIC", "setting": "SAUR 9213; [1]", "value": 4, "unit": "µg/mL"}]}
{"smiles": "CC(=O)NC[C@H]1CN(c2ccc(N3CCN(CC#Cc4ccccc4)CC3)c(F)c2)C(=O)O1", "note": "[Compound 9, N-[((5S)-3-{3-fluoro-4-[4-(3-phenylprop-2-ynyl)piperazin-1-yl]phenyl}-2-oxo-1,3-oxazolidin-5-yl)methyl]acetamide]", "values": [{"measurement": "MIC", "setting": "SPNE 9912; [1]", "value": 2, "unit": "µg/mL"}, {"measurement": "MIC", "setting": "HINF 30063; [1]", "value": 16, "unit": "µg/mL"}, {"measurement": "MIC", "setting": "SAUR 9213; [1]", "value": 4, "unit": "µg/mL"}]}
{"smiles": "CC(=O)NC[C@H]1CN(c2ccc(N3CCN(C(=O)CCCCC#Cc4cccc(O)c4)CC3)c(F)c2)C(=O)O1", "note": "[Compound 25, N-{[(5S)-3-(3-fluoro-4-{4-[7-(3-hydroxyphenyl)hept-6-ynoyl]piperazin-1-yl}phenyl)-2-oxo-1,3-oxazolidin-5-yl]methyl}acetamide]", "values": [{"measurement": "MIC", "setting": "SPNE 9912; [1]", "value": 2, "unit": "µg/mL"}, {"measurement": "MIC", "setting": "HINF 30063; [1]", "value": "> 64", "unit": "µg/mL"}, {"measurement": "MIC", "setting": "SAUR 9213; [1]", "value": 8, "unit": "µg/mL"}]}
{"smiles": "C#CCCCC(=O)N1CCN(c2ccc(N3C[C@H](CNC(C)=O)OC3=O)cc2F)CC1", "note": "[Compound 4, N-({(5S)-3-[3-Fluoro-4-(4-hex-5-ynoylpiperazin-1-yl)phenyl]-2-oxo-1,3-oxazolidin-5-yl}methyl)acetamide]", "values": [{"measurement": "MIC", "setting": "SPNE 9912", "value": 1, "unit": "µg/mL"}, {"measurement": "MIC", "setting": "HINF 30063", "value": 64, "unit": "µg/mL"}, {"measurement": "MIC", "setting": "SAUR 9213", "value": 4, "unit": "µg/mL"}]}
